Values of other authors in patent EP4574138A1, “A TABLET COMPOSITION COMPRISING IVACAFTOR” (Sanovel Ilac Sanayi Ve Ticaret Anonim Sirketi, priority 2023, dated 2025).

Conditions: background description of the drug substance

- solubility in water (practically insoluble in water): < 0.05 microgram/mL
Compound: CC(C)(C)c1cc(C(C)(C)C)c(NC(=O)c2c[nH]c3ccccc3c2=O)cc1O [Ivacaftor, N-(2,4-di-tert-butyl-5-hydroxyphenyl)-1,4-dihydro-4-oxoquinoline-3-carboxamide]
